pIC50: −log10 of the molar value.
How the values were obtained:
[1] = target: metalloprotease LF (lethal factor) (Bacillus anthracis, UniProt P15917); assay: biochemical
[2] = target: Akt1 (Homo sapiens, UniProt P31749); assay: Selectivity profile: Akt1; type: biochemical
[3] = Insulin tolerance test in insulin insensitive db/db mice; type: in vivo; conditions: 25 mg/kg i.p. once, 30 minutes prior to insulin injection

Sequence of metalloprotease LF (lethal factor) (P15917 34-809 limits assumed): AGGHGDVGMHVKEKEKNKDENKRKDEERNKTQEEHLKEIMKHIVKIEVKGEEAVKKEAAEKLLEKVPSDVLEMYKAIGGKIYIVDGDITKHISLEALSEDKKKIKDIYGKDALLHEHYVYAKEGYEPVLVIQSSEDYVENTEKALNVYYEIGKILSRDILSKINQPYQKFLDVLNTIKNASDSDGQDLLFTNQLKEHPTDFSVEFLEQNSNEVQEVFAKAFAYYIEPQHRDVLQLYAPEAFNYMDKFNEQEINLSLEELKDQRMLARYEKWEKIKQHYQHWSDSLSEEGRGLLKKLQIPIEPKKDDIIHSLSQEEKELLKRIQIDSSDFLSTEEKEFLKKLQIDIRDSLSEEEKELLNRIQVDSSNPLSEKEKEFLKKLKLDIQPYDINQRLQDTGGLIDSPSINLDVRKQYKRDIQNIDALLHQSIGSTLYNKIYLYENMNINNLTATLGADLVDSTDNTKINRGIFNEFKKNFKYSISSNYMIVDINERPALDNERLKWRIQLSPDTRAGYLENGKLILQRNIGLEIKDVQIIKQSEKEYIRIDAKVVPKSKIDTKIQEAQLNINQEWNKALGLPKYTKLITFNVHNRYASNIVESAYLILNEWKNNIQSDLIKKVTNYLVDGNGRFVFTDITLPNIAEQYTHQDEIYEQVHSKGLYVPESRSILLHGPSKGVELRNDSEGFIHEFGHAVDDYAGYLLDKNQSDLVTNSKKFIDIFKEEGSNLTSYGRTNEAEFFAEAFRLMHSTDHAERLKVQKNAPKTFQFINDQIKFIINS
Sequence of Akt1 (P31749 whole entry, species assumed): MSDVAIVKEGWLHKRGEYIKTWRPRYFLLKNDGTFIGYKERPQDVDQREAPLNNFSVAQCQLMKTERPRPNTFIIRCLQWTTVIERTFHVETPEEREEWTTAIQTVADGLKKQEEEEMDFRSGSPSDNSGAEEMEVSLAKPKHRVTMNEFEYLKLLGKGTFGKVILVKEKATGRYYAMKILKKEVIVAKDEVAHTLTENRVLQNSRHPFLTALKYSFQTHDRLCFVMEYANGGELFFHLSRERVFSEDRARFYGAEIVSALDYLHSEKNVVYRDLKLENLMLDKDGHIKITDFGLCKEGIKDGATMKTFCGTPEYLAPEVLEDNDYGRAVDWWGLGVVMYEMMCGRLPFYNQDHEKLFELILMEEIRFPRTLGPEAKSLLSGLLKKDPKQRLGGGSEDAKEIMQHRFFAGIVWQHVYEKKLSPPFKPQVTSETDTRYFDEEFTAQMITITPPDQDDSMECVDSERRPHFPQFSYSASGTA

| SMILES | pIC50 [1] | activity against Akt kinase [2] | effect of insulin on blood glucose levels compared to the vehicle control [3] |
| --- | --- | --- | --- |
| O=c1[nH]nc(Sc2ncc([N+](=O)[O-])s2)n1-c1ccc([N+](=O)[O-])cc1 [Compound 3j, 4-(4-nitrophenyl)-5-(5-nitrothiazol-2-ylthio)-4H-1,2,4-triazol-3-ol] | < 4.00 | – | – |
| Cn1cccc1-c1nnc(Sc2ncc([N+](=O)[O-])s2)n1-c1ccc(Cl)cc1Cl [Compound 7b, 2-(4-(2,4-dichlorophenyl)-5-(1-methyl-1H-pyrrol-2-yl)-4H-1,2,4-triazol-3-ylthio)-5-nitrothiazole] | < 4.00 | – | – |
| O=[N+]([O-])c1cnc(Sc2nnc(Sc3ncc([N+](=O)[O-])s3)s2)s1 [Compound 8f, 2,5-bis(5-nitrothiazol-2-ylthio)-1,3,4-thiadiazole] | < 4.00 | – | – |
| Nc1nnc(Sc2ncc([N+](=O)[O-])s2)s1 [Compound 9, 5-(5-nitrothiazol-2-ylthio)-1,3,4-thiadiazol-2-amine] | < 4.00 | completely inactive | statistically significant reduction in blood glucose levels |

Source: paper PMC2667321 (Journal of medicinal chemistry, 2009)
